Reference: patent publication US20150320706A1, “FORMULATIONS AND METHODS OF TREATING ALZHEIMER'S DISEASE AND OTHER PROTEINOPATHIES BY COMBINATION THERAPY” (CHIESI FARMACEUTICI S.P.A., priority 2014, published 2015)
“Also recorded” adds a separate entry of the source.

What was measured:
[1] = system: patients with mild cognitive impairment (MCI); settings: cited from earlier work
sCD40L and TNF-α = experiment: Neuroinflammation biomarkers in cerebrospinal fluid of MCI patients; type: in vivo, human; settings: MCI patients, 200, 400 and 600 mg/day
Method: (§1) Methods: At the end of a 14-week double-blind, placebo-controlled study in 96 MCI patients evaluating three titrated dose regimens of CHF 5074 (200, 400 and 600 mg/day), patients were given the option to enter a 76-week open label extension study. Patients received CHF 5074 at the dose equal to that of their originally assigned double-blind study cohort. Patients were monitored for vital signs, cardiac activity, neuropsychological performance and safety laboratory parameters.

[2] = system: human APP transgenic mice models of AD; settings: transgenic mouse models of AD; cited from earlier work
Notch = settings: cited from earlier work
[3] = system: MCI (mild cognitively impaired) patients; experiment: Cognitive tests in open label extension study of CHF 5074 in MCI patients; type: in vivo, human
Method: (§2) In Example 1, the safety and tolerability and cognitive effects of CHF 5074 was analyzed after prolonged treatment in MCI (mild cognitively impaired) patients.
as §1

Aβ42 = settings: in vitro; cited from earlier work
[4] = system: TNF-α and soluble CD 40 ligand (sCD40L); settings: healthy subjects and individuals with MCI; cited from earlier work
[5] = in vivo, cited from earlier work
[6] = system: MCI (mild cognitively impaired) patients; experiment: Safety and tolerability after prolonged treatment in MCI patients; type: in vivo, human
Method: as §2, §1

microglia = settings: response to an Aβ42 stimulus; cited from earlier work
β-amyloid = settings: cited from earlier work
Sequence of β-amyloid (P05067 672-711 limits assumed): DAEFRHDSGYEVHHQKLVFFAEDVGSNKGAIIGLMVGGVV

[7] = system: cognitively normal elderly subjects; settings: cited from earlier work
[8] = APOE4 non-carriers, Study Week 64

CS(=O)(=O)c1ccc(C2=C(c3ccccc3)C(=O)OC2)cc1 [rofecoxib]
outcome of secondary prevention study [1]: negative

O=C(O)C1(c2ccc(-c3ccc(Cl)c(Cl)c3)c(F)c2)CC1 [CHF 5074, 1-(3′,4′-dichloro-2-fluorobiphenyl-4-yl)cyclopropanecarboxylic acid]
neuroinflammation biomarkers (CSF sCD40L and TNF-α) (sCD40L and TNF-α): dose-dependently lowered
brain plaque deposition [2]: prevent brain plaque deposition; also recorded: inhibit brain plaque deposition
memory deficits [2]: attenuate memory deficits; also recorded: attenuate or reverse associated memory deficits
effects on Notch processing (Notch): lack of effects on Notch processing
verbal memory, week 88 change from baseline, comparison of doses ([3]; 200 mg/day and 400 mg/day compared to 600 mg/day (FIG. 1)): surprisingly superior
verbal memory at week 88 (number of words) ([3]; 200 mg/day and 400 mg/day doses (FIG. 8)): dose-dependent improvement
improvements as share of Baseline scores ([3]; APOE4 carriers, Immediate Word Recall and Trail Making Test-A, Study Week 64): 25-38%
Immediate Word Recall, improvement compared to Baseline ([3]; APOE4 carriers, Study Week 64, p=0.012 vs non-carriers): +5.4±1.2 words
Trail Making Test-A, improvement compared to Baseline ([3]; APOE4 carriers, Study Week 64, p=0.034 vs non-carriers): -12.4 ± 2.8 s
Immediate Word Recall, improvement compared to Baseline [3, 8]: +1.4±0.9 words
Trail Making Test-A, improvement compared to Baseline [3, 8]: -5.6 ± 3.3 s
Digit Symbol Substitution Test, improvement compared to Baseline ([3]; interim analysis, 32 patients reaching Study Week 64, p<0.001): +4.8±1.1 matches
Immediate Word Recall, improvement compared to Baseline ([3]; interim analysis, 32 patients reaching Study Week 64, p=0.001): +2.9±0.8 words
Trail Making Test-A, improvement compared to Baseline ([3]; interim analysis, 32 patients reaching Study Week 64, p=0.002): -8.1 ± 2.4 s
Delayed Word Recall, improvement compared to Baseline ([3]; interim analysis, 32 patients reaching Study Week 64, p=0.003): +1.3±0.4 words
Trail Making Test-B, improvement compared to Baseline ([3]; interim analysis, 32 patients reaching Study Week 64, p=0.004): -14.5 ± 4.6 s
Aβ42 inhibitory activity (Aβ42): selective Aβ42 inhibitory activity
CSF biomarkers of neuroinflammation, TNF-α and sCD40L [4]: lowers, in a dose-dependent fashion
oral absorption ([5]; po): good oral absorption
brain penetration [5]: satisfactory brain penetration
half-life [5]: long half-life
diarrhea, patients reporting ([6]; 200 mg/day): 1.4%
diarrhea, patients reporting ([6]; 400 mg/day): 6.3%
drop-outs for adverse events ([6]; 400 mg/day group, at Study Week 40 (pneumonia)): one
diarrhea, patients reporting ([6]; 600 mg/day): 16.0%
drop-outs for adverse events ([6]; 600 mg/day group, at Study Week 40 (serum creatinine elevation and worsening of cognitive function)): two
safety profile ([6]; MCI patients): acceptable safety profile
tolerability ([6]; prolonged treatment at doses up to and including 400 mg/day): well tolerated
M1 inflammatory activity of microglia (microglia): blunting or inhibiting M1 inflammatory activity
M2 phagocytic responses of microglia (microglia): stimulating M2 phagocytic responses

MABT5102A: humanized monoclonal antibody against human Aβ1-40 and Aβ1-42 with an IgG4 backbone which reduces effector function
binding to β-amyloid species (β-amyloid): binds to soluble, oligomeric and fibrillar β-amyloid deposits

COc1ccc2cc([C@H](C)C(=O)O)ccc2c1 [naproxen]
protection from the onset of AD compared to placebo ([7]; 4-year follow-up assessment): 67%
incidence of dementia ([7]; after two years of treatment): neither drug reduced the incidence of dementia
